{"source": "patent US20240148733A1", "about": "“COMBINATION THERAPY” (Genentech, Inc., priority 2021, published 2024)", "type_in_all_cases": "cell-based", "key": {"H2122 cells (KRAS G12C)": {"test_system": "H2122 cells (KRAS G12C)", "assay": "Drug combination assay (CellTiter-Glo cell viability)", "conditions": "six days, 384-wells", "description": "(§1) Cells were seeded in either 96-well or 384-well plates 16 h before treatment at a density of 1000 cells per well. Then, cells were treated with varying concentrations of compound(s) as indicated in FIGS. 1-8 (384-wells) and FIGS. 10-105 (96-wells), either a single agent or in combination, for six days. The relative number of viable cells was estimated using CellTiter-Glo Luminescent Cell Viability Assay (Promega, G7573). Total luminescence was detected on a Wallac Multilabel Reader (Perkin-Elmer)."}, "[1]": {"test_system": "cells resistant to Compound K2", "assay": "Soft agar 3D culture", "conditions": "combination with Compound K2 (a KRAS inhibitor); 11-14 day incubation; Gelcount cell counting", "description": "Two heat blocks (1× without blocks, 1× with 50 ml tube block) were heated to 44° C. Flat-bottom 96-well non-tissue culture treated assay plates (Falcon 353219) and fluid reservoirs were kept at 37° C. 2×RPMI+20% FCS (which can be stored at 4° C.) were made and warmed to 37° C. 100 ml 1.2% agarose and 0.58% agarose solution was made by adding […] sterile water to a sterile 500 ml bottle and then carefully adding 1.2 gram/0.58 gram agarose (using normal out-of-the-hood weight), avoiding bubbles, foam, and sticking of undiluted agarose to walls as much as possible. The solution was then microwaved until fully dissolved and bubbling. The solution was then cooled for 10-15 minutes at room temperature and incubated at 37° C. The solution can be stored at room temperature for future use.\nFor each plate, 2 ml 1.2% agarose was mixed with 2 ml 2×RPMI+20% FCS in a 50 ml tube in a heat block by swirling the tube (minimizing pipetting up and down, as this cools the agarose too much). By double-tap (pipet is pushed in completely, liquid is taken up, then pushed out until first stop only), 40 μl 1.2% agarose/96-well was added, excluding edge 96-wells. The agarose was set at “waterpas” level and stored at 4° C. until further use. 1.2% agarose-containing plate was placed on ice for 10 minutes before plating cells.\nCells were trypsinized and counted. […]"}, "[2]": {"test_system": "H358 resistant cells (KRAS G12C)", "assay": "Drug combination assay (CellTiter-Glo cell viability)", "conditions": "six days, 96-wells", "description": "as §1"}, "H2030 cells (KRAS G12C)": {"test_system": "H2030 cells (KRAS G12C)", "assay": "Drug combination assay (CellTiter-Glo cell viability)", "conditions": "six days, 96-wells", "description": "as §1"}, "[3]": {"test_system": "H358 parental cells (KRAS G12C)", "assay": "Drug combination assay (CellTiter-Glo cell viability)", "conditions": "six days, 96-wells", "description": "as §1"}, "[4]": {"conditions": "combination with Compound K1 (a KRAS inhibitor)"}, "[5]": {"conditions": "combination with Compound K2 (a KRAS inhibitor)"}, "[6]": {"conditions": "combination with Compound K3 (a KRAS inhibitor)"}, "[7]": {"conditions": "combination with Compound K4 (a KRAS inhibitor)"}}}
{"smiles": "C=CC(=O)Nc1cc2c(c(-c3ccc(C(C)C)cc3)c1)OCC2", "note": "[Compound T2, N-(7-(4-isopropylphenyl)-2,3-dihydrobenzofuran-5-yl)acrylamide]", "values": [{"measurement": "% inhibition of H2122 cells (KRAS G12C)", "setting": "H2122 cells (KRAS G12C); [4]", "result": "sensitizes cells resistant to Compound K1"}, {"measurement": "% inhibition of H2122 cells (KRAS G12C)", "setting": "H2122 cells (KRAS G12C); [5]", "result": "sensitizes cells resistant to Compound K2"}, {"measurement": "soft agar 3D culture growth", "setting": "[1]", "result": "sensitizes cells resistant to Compound K2"}]}
{"smiles": "C=CC(=O)Nc1cnc(OC)c(/C=C/[C@H]2CC[C@H](C(F)(F)F)CC2)c1", "note": "[Compound T3, N-(6-methoxy-5-((E)-2-((1r,4r)-4-(trifluoromethyl)cyclohexyl)vinyl)pyridin-3-yl)acrylamide]", "values": [{"measurement": "combination effect on cell viability (qualitative)", "setting": "[2]; [4]", "result": "sensitizes cells resistant to Compound K1"}, {"measurement": "combination effect on cell viability (qualitative)", "setting": "[2]; [5]", "result": "sensitizes cells resistant to Compound K2"}, {"measurement": "combination effect on cell viability (qualitative)", "setting": "[2]; [6]", "result": "sensitizes cells resistant to Compound K3"}, {"measurement": "combination effect on cell viability (qualitative)", "setting": "[2]; [7]", "result": "sensitizes cells resistant to Compound K4"}, {"measurement": "% inhibition of H2030 cells (KRAS G12C)", "setting": "H2030 cells (KRAS G12C); [4]", "result": "sensitizes cells resistant to Compound K1"}, {"measurement": "% inhibition of H2030 cells (KRAS G12C)", "setting": "H2030 cells (KRAS G12C); [5]", "result": "sensitizes cells resistant to Compound K2"}, {"measurement": "% inhibition of H2030 cells (KRAS G12C)", "setting": "H2030 cells (KRAS G12C); [6]", "result": "sensitizes cells resistant to Compound K3"}, {"measurement": "% inhibition of H2030 cells (KRAS G12C)", "setting": "H2030 cells (KRAS G12C); [7]", "result": "sensitizes cells resistant to Compound K4"}, {"measurement": "% inhibition of H358 parental cells (KRAS G12C)", "setting": "[3]; [4]", "result": "sensitizes cells resistant to Compound K1"}, {"measurement": "% inhibition of H358 parental cells (KRAS G12C)", "setting": "[3]; [5]", "result": "sensitizes cells resistant to Compound K2"}, {"measurement": "% inhibition of H358 parental cells (KRAS G12C)", "setting": "[3]; [6]", "result": "sensitizes cells resistant to Compound K3"}, {"measurement": "% inhibition of H358 parental cells (KRAS G12C)", "setting": "[3]; [7]", "result": "sensitizes cells resistant to Compound K4"}, {"measurement": "% inhibition of H2122 cells (KRAS G12C)", "setting": "H2122 cells (KRAS G12C); [4]", "result": "sensitizes cells resistant to Compound K1"}, {"measurement": "% inhibition of H2122 cells (KRAS G12C)", "setting": "H2122 cells (KRAS G12C); [5]", "result": "sensitizes cells resistant to Compound K2"}]}
{"smiles": "C=C(CNc1cc(-c2ccc(C(C)C)cc2)c2c(c1C#N)CCO2)C(=O)O", "note": "[Compound T4, 2-(((4-cyano-7-(4-isopropylphenyl)-2,3-dihydrobenzofuran-5-yl)amino)methyl)acrylic acid]", "values": [{"measurement": "% inhibition of H2122 cells (KRAS G12C)", "setting": "H2122 cells (KRAS G12C); [4]", "result": "sensitizes cells resistant to Compound K1"}, {"measurement": "% inhibition of H2122 cells (KRAS G12C)", "setting": "H2122 cells (KRAS G12C); [5]", "result": "sensitizes cells resistant to Compound K2"}]}
{"smiles": "C[C@H](NC(=O)c1ccc2c(-c3ccc(C(F)(F)F)cc3)cccc2c1)c1ccccn1", "note": "[Compound T7, N-[(1S)-1-(2-pyridyl)ethyl]-5-[4-(trifluoromethyl)phenyl]naphthalene-2-carboxamide]", "values": [{"measurement": "combination effect on cell viability (qualitative)", "setting": "[2]; [4]", "result": "sensitizes cells resistant to Compound K1"}, {"measurement": "combination effect on cell viability (qualitative)", "setting": "[2]; [5]", "result": "sensitizes cells resistant to Compound K2"}, {"measurement": "combination effect on cell viability (qualitative)", "setting": "[2]; [6]", "result": "sensitizes cells resistant to Compound K3"}, {"measurement": "combination effect on cell viability (qualitative)", "setting": "[2]; [7]", "result": "sensitizes cells resistant to Compound K4"}, {"measurement": "% inhibition of H2030 cells (KRAS G12C)", "setting": "H2030 cells (KRAS G12C); [4]", "result": "sensitizes cells resistant to Compound K1"}, {"measurement": "% inhibition of H2030 cells (KRAS G12C)", "setting": "H2030 cells (KRAS G12C); [5]", "result": "sensitizes cells resistant to Compound K2"}, {"measurement": "% inhibition of H2030 cells (KRAS G12C)", "setting": "H2030 cells (KRAS G12C); [6]", "result": "sensitizes cells resistant to Compound K3"}, {"measurement": "% inhibition of H2030 cells (KRAS G12C)", "setting": "H2030 cells (KRAS G12C); [7]", "result": "sensitizes cells resistant to Compound K4"}, {"measurement": "% inhibition of H358 parental cells (KRAS G12C)", "setting": "[3]; [4]", "result": "sensitizes cells resistant to Compound K1"}, {"measurement": "% inhibition of H358 parental cells (KRAS G12C)", "setting": "[3]; [5]", "result": "sensitizes cells resistant to Compound K2"}, {"measurement": "% inhibition of H358 parental cells (KRAS G12C)", "setting": "[3]; [6]", "result": "sensitizes cells resistant to Compound K3"}, {"measurement": "% inhibition of H358 parental cells (KRAS G12C)", "setting": "[3]; [7]", "result": "sensitizes cells resistant to Compound K4"}]}
{"smiles": "CNS(=O)(=O)c1ccc(Nc2ccc(C(F)(F)F)cc2)c(-c2cn(C)cn2)c1", "note": "[Compound T8, N-methyl-3-(1-methylimidazol-4-yl)-4-[4-(trifluoromethyl)anilino]benzenesulfonamide]", "values": [{"measurement": "combination effect on cell viability (qualitative)", "setting": "[2]; [4]", "result": "sensitizes cells resistant to Compound K1"}, {"measurement": "combination effect on cell viability (qualitative)", "setting": "[2]; [5]", "result": "sensitizes cells resistant to Compound K2"}, {"measurement": "combination effect on cell viability (qualitative)", "setting": "[2]; [6]", "result": "sensitizes cells resistant to Compound K3"}, {"measurement": "combination effect on cell viability (qualitative)", "setting": "[2]; [7]", "result": "sensitizes cells resistant to Compound K4"}, {"measurement": "% inhibition of H2030 cells (KRAS G12C)", "setting": "H2030 cells (KRAS G12C); [4]", "result": "sensitizes cells resistant to Compound K1"}, {"measurement": "% inhibition of H2030 cells (KRAS G12C)", "setting": "H2030 cells (KRAS G12C); [5]", "result": "sensitizes cells resistant to Compound K2"}, {"measurement": "% inhibition of H2030 cells (KRAS G12C)", "setting": "H2030 cells (KRAS G12C); [6]", "result": "sensitizes cells resistant to Compound K3"}, {"measurement": "% inhibition of H2030 cells (KRAS G12C)", "setting": "H2030 cells (KRAS G12C); [7]", "result": "sensitizes cells resistant to Compound K4"}, {"measurement": "% inhibition of H358 parental cells (KRAS G12C)", "setting": "[3]; [4]", "result": "sensitizes cells resistant to Compound K1"}, {"measurement": "% inhibition of H358 parental cells (KRAS G12C)", "setting": "[3]; [5]", "result": "sensitizes cells resistant to Compound K2"}, {"measurement": "% inhibition of H358 parental cells (KRAS G12C)", "setting": "[3]; [6]", "result": "sensitizes cells resistant to Compound K3"}, {"measurement": "% inhibition of H358 parental cells (KRAS G12C)", "setting": "[3]; [7]", "result": "sensitizes cells resistant to Compound K4"}]}
{"smiles": "Cn1cc2c3cc(C(=O)O)ccc3n(-c3ccc(C(F)(F)F)cc3)c2n1", "note": "[Compound T10]", "values": [{"measurement": "combination effect on cell viability (qualitative)", "setting": "[2]; [4]", "result": "sensitizes cells resistant to Compound K1"}, {"measurement": "combination effect on cell viability (qualitative)", "setting": "[2]; [5]", "result": "sensitizes cells resistant to Compound K2"}, {"measurement": "combination effect on cell viability (qualitative)", "setting": "[2]; [6]", "result": "sensitizes cells resistant to Compound K3"}, {"measurement": "combination effect on cell viability (qualitative)", "setting": "[2]; [7]", "result": "sensitizes cells resistant to Compound K4"}, {"measurement": "% inhibition of H2030 cells (KRAS G12C)", "setting": "H2030 cells (KRAS G12C); [4]", "result": "sensitizes cells resistant to Compound K1"}, {"measurement": "% inhibition of H2030 cells (KRAS G12C)", "setting": "H2030 cells (KRAS G12C); [5]", "result": "sensitizes cells resistant to Compound K2"}, {"measurement": "% inhibition of H2030 cells (KRAS G12C)", "setting": "H2030 cells (KRAS G12C); [6]", "result": "sensitizes cells resistant to Compound K3"}, {"measurement": "% inhibition of H2030 cells (KRAS G12C)", "setting": "H2030 cells (KRAS G12C); [7]", "result": "sensitizes cells resistant to Compound K4"}, {"measurement": "% inhibition of H358 parental cells (KRAS G12C)", "setting": "[3]; [4]", "result": "sensitizes cells resistant to Compound K1"}, {"measurement": "% inhibition of H358 parental cells (KRAS G12C)", "setting": "[3]; [5]", "result": "sensitizes cells resistant to Compound K2"}, {"measurement": "% inhibition of H358 parental cells (KRAS G12C)", "setting": "[3]; [6]", "result": "sensitizes cells resistant to Compound K3"}, {"measurement": "% inhibition of H358 parental cells (KRAS G12C)", "setting": "[3]; [7]", "result": "sensitizes cells resistant to Compound K4"}]}
